Test results published in the NIST ThermoML archive (doi:10.1021/je050416y).

Assay: xn = mol fraction of the nth substance listed
Settings: 101 kPa, Liquid; for mass density: Vibrating tube method

CCC(C)CO (configuration not stated) [2-methyl-1-butanol] + CCO
Settings | kinematic viscosity [m2/s] | mass density [kg/m3]
293.15 K, x1 = 0.0268 | – | 790.9
293.15 K, x1 = 0.0549 | – | 792.1
293.15 K, x1 = 0.0845 | – | 793.4
293.15 K, x1 = 0.0915 | 1.66e-06 | –
293.15 K, x1 = 0.1156 | – | 794.7
293.15 K, x1 = 0.1484 | – | 795.9
293.15 K, x1 = 0.1753 | 1.8e-06 | –
293.15 K, x1 = 0.183 | – | 797.2
293.15 K, x1 = 0.2524 | 1.92e-06 | –
293.15 K, x1 = 0.2584 | – | 799.9
293.15 K, x1 = 0.3235 | 2.04e-06 | –
293.15 K, x1 = 0.3433 | – | 802.7
293.15 K, x1 = 0.3894 | 2.17e-06 | –
293.15 K, x1 = 0.4395 | – | 805.5
293.15 K, x1 = 0.4505 | 2.32e-06 | –
293.15 K, x1 = 0.5495 | – | 808.4
293.15 K, x1 = 0.5605 | 2.67e-06 | –
293.15 K, x1 = 0.6567 | 3.06e-06 | –
293.15 K, x1 = 0.6765 | – | 811.4
293.15 K, x1 = 0.7416 | 3.47e-06 | –
293.15 K, x1 = 0.817 | 3.92e-06 | –
293.15 K, x1 = 0.8247 | – | 814.5
293.15 K, x1 = 0.8844 | 4.45e-06 | –
293.15 K, x1 = 0.9451 | 5.14e-06 | –
293.15 K, x1 = 1 | 6.11e-06 | 817.6
298.15 K, x1 = 0.0268 | – | 786.6
298.15 K, x1 = 0.0549 | – | 787.9
298.15 K, x1 = 0.0845 | – | 789.2
298.15 K, x1 = 0.0915 | 1.5e-06 | –
298.15 K, x1 = 0.1156 | – | 790.6
298.15 K, x1 = 0.1484 | – | 791.9
298.15 K, x1 = 0.1753 | 1.61e-06 | –
298.15 K, x1 = 0.183 | – | 793.2
298.15 K, x1 = 0.2524 | 1.71e-06 | –
298.15 K, x1 = 0.2584 | – | 796
298.15 K, x1 = 0.3235 | 1.82e-06 | –
298.15 K, x1 = 0.3433 | – | 798.8
298.15 K, x1 = 0.3894 | 1.93e-06 | –
298.15 K, x1 = 0.4395 | – | 801.8
298.15 K, x1 = 0.4505 | 2.06e-06 | –
298.15 K, x1 = 0.5495 | – | 804.8
298.15 K, x1 = 0.5605 | 2.36e-06 | –
298.15 K, x1 = 0.6567 | 2.69e-06 | –
298.15 K, x1 = 0.6765 | – | 807.9
298.15 K, x1 = 0.7416 | 3.04e-06 | –
298.15 K, x1 = 0.817 | 3.43e-06 | –
298.15 K, x1 = 0.8247 | – | 811
298.15 K, x1 = 0.8844 | 3.89e-06 | –
298.15 K, x1 = 0.9451 | 4.49e-06 | –
298.15 K, x1 = 1 | 5.34e-06 | 814.1
303.15 K, x1 = 0.0268 | – | 782.3
303.15 K, x1 = 0.0549 | – | 783.7
303.15 K, x1 = 0.0845 | – | 785
303.15 K, x1 = 0.0915 | 1.32e-06 | –
303.15 K, x1 = 0.1156 | – | 786.4
303.15 K, x1 = 0.1484 | – | 787.8
303.15 K, x1 = 0.1753 | 1.41e-06 | –
303.15 K, x1 = 0.183 | – | 789.2
303.15 K, x1 = 0.2524 | 1.5e-06 | –
303.15 K, x1 = 0.2584 | – | 792
303.15 K, x1 = 0.3235 | 1.59e-06 | –
303.15 K, x1 = 0.3433 | – | 795
303.15 K, x1 = 0.3894 | 1.68e-06 | –
303.15 K, x1 = 0.4395 | – | 798
303.15 K, x1 = 0.4505 | 1.8e-06 | –
303.15 K, x1 = 0.5495 | – | 801.1
303.15 K, x1 = 0.5605 | 2.06e-06 | –
303.15 K, x1 = 0.6567 | 2.35e-06 | –
303.15 K, x1 = 0.6765 | – | 804.2
303.15 K, x1 = 0.7416 | 2.66e-06 | –
303.15 K, x1 = 0.817 | 3e-06 | –
303.15 K, x1 = 0.8247 | – | 807.4
303.15 K, x1 = 0.8844 | 3.41e-06 | –
303.15 K, x1 = 0.9451 | 3.94e-06 | –
303.15 K, x1 = 1 | 4.69e-06 | 810.5
308.15 K, x1 = 0.0268 | – | 778
308.15 K, x1 = 0.0549 | – | 779.4
308.15 K, x1 = 0.0845 | – | 780.9
308.15 K, x1 = 0.0915 | 1.2e-06 | –
308.15 K, x1 = 0.1156 | – | 782.3
308.15 K, x1 = 0.1484 | – | 783.8
308.15 K, x1 = 0.1753 | 1.27e-06 | –
308.15 K, x1 = 0.183 | – | 785.2
308.15 K, x1 = 0.2524 | 1.34e-06 | –
308.15 K, x1 = 0.2584 | – | 788.1
308.15 K, x1 = 0.3235 | 1.42e-06 | –
308.15 K, x1 = 0.3433 | – | 791.2
308.15 K, x1 = 0.3894 | 1.5e-06 | –
308.15 K, x1 = 0.4395 | – | 794.3
308.15 K, x1 = 0.4505 | 1.6e-06 | –
308.15 K, x1 = 0.5495 | – | 797.5
308.15 K, x1 = 0.5605 | 1.82e-06 | –
308.15 K, x1 = 0.6567 | 2.07e-06 | –
308.15 K, x1 = 0.6765 | – | 800.7
308.15 K, x1 = 0.7416 | 2.33e-06 | –
308.15 K, x1 = 0.817 | 2.62e-06 | –
308.15 K, x1 = 0.8247 | – | 803.9
308.15 K, x1 = 0.8844 | 2.97e-06 | –
308.15 K, x1 = 0.9451 | 3.43e-06 | –
308.15 K, x1 = 1 | 4.08e-06 | 807.1
313.15 K, x1 = 0.0268 | – | 773.7
313.15 K, x1 = 0.0549 | – | 775.2
313.15 K, x1 = 0.0845 | – | 776.7
313.15 K, x1 = 0.0915 | 1.08e-06 | –
313.15 K, x1 = 0.1156 | – | 778.2
313.15 K, x1 = 0.1484 | – | 779.7
313.15 K, x1 = 0.1753 | 1.14e-06 | –
313.15 K, x1 = 0.183 | – | 781.2
313.15 K, x1 = 0.2524 | 1.2e-06 | –
313.15 K, x1 = 0.2584 | – | 784.2
313.15 K, x1 = 0.3235 | 1.26e-06 | –
313.15 K, x1 = 0.3433 | – | 787.3
313.15 K, x1 = 0.3894 | 1.33e-06 | –
313.15 K, x1 = 0.4395 | – | 790.5
313.15 K, x1 = 0.4505 | 1.41e-06 | –
313.15 K, x1 = 0.5495 | – | 793.8
313.15 K, x1 = 0.5605 | 1.6e-06 | –
313.15 K, x1 = 0.6567 | 1.8e-06 | –
313.15 K, x1 = 0.6765 | – | 797
313.15 K, x1 = 0.7416 | 2.03e-06 | –
313.15 K, x1 = 0.817 | 2.28e-06 | –
313.15 K, x1 = 0.8247 | – | 800.3
313.15 K, x1 = 0.8844 | 2.58e-06 | –
313.15 K, x1 = 0.9451 | 2.97e-06 | –
313.15 K, x1 = 1 | 3.54e-06 | 803.6
318.15 K, x1 = 0.0268 | – | 769.4
318.15 K, x1 = 0.0549 | – | 771
318.15 K, x1 = 0.0845 | – | 772.5
318.15 K, x1 = 0.0915 | 9.8e-07 | –
318.15 K, x1 = 0.1156 | – | 774.1
318.15 K, x1 = 0.1484 | – | 775.6
318.15 K, x1 = 0.1753 | 1.03e-06 | –
318.15 K, x1 = 0.183 | – | 777.2
318.15 K, x1 = 0.2524 | 1.07e-06 | –
318.15 K, x1 = 0.2584 | – | 780.3
318.15 K, x1 = 0.3235 | 1.13e-06 | –
318.15 K, x1 = 0.3433 | – | 783.5
318.15 K, x1 = 0.3894 | 1.19e-06 | –
318.15 K, x1 = 0.4395 | – | 786.8
318.15 K, x1 = 0.4505 | 1.25e-06 | –
318.15 K, x1 = 0.5495 | – | 790.1
318.15 K, x1 = 0.5605 | 1.41e-06 | –
318.15 K, x1 = 0.6567 | 1.59e-06 | –
318.15 K, x1 = 0.6765 | – | 793.4
318.15 K, x1 = 0.7416 | 1.78e-06 | –
318.15 K, x1 = 0.817 | 2e-06 | –
318.15 K, x1 = 0.8247 | – | 796.7
318.15 K, x1 = 0.8844 | 2.26e-06 | –
318.15 K, x1 = 0.9451 | 2.6e-06 | –
318.15 K, x1 = 1 | 3.09e-06 | 800.1
323.15 K, x1 = 0.0268 | – | 765.1
323.15 K, x1 = 0.0549 | – | 766.7
323.15 K, x1 = 0.0845 | – | 768.3
323.15 K, x1 = 0.0915 | 8.59e-07 | –
323.15 K, x1 = 0.1156 | – | 769.9
323.15 K, x1 = 0.1484 | – | 771.5
323.15 K, x1 = 0.1753 | 8.96e-07 | –
323.15 K, x1 = 0.183 | – | 773.1
323.15 K, x1 = 0.2524 | 9.37e-07 | –
323.15 K, x1 = 0.2584 | – | 776.3
323.15 K, x1 = 0.3235 | 9.83e-07 | –
323.15 K, x1 = 0.3433 | – | 779.6
323.15 K, x1 = 0.3894 | 1.04e-06 | –
323.15 K, x1 = 0.4395 | – | 782.9
323.15 K, x1 = 0.4505 | 1.1e-06 | –
323.15 K, x1 = 0.5495 | – | 786.3
323.15 K, x1 = 0.5605 | 1.23e-06 | –
323.15 K, x1 = 0.6567 | 1.39e-06 | –
323.15 K, x1 = 0.6765 | – | 789.7
323.15 K, x1 = 0.7416 | 1.56e-06 | –
323.15 K, x1 = 0.817 | 1.75e-06 | –
323.15 K, x1 = 0.8247 | – | 793.2
323.15 K, x1 = 0.8844 | 1.98e-06 | –
323.15 K, x1 = 0.9451 | 2.28e-06 | –
323.15 K, x1 = 1 | 2.72e-06 | 796.6
